Data set [1] addresses T1, OATP1B1 (Homo sapiens, UniProt Q9Y6L6).
T1 sequence (Q9Y6L6 1-691): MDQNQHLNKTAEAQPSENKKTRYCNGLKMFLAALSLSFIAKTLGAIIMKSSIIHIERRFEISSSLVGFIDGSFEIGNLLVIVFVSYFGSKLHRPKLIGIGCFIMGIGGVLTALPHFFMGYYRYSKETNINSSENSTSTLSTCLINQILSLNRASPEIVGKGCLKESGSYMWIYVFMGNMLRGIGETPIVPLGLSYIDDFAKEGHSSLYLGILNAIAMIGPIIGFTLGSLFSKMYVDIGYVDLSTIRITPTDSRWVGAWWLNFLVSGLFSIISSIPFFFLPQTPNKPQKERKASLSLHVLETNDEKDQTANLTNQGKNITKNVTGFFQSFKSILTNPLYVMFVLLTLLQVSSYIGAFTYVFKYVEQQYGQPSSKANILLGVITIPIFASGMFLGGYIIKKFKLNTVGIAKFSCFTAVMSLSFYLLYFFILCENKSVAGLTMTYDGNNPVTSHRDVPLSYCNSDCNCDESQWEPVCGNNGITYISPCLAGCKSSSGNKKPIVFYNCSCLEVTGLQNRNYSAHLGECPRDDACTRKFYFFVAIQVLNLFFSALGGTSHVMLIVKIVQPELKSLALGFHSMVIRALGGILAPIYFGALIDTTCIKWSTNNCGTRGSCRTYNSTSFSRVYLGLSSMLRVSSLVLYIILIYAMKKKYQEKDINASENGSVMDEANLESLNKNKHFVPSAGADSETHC
Put plainly: Transporter substrate assessment. The data set is classed as in vitro ADME.

In data set [2] the target is CYP3A5 (Homo sapiens, UniProt P20815). Put plainly: Cytochrome P450 inhibition. The class given is in vitro ADME.
Chain of CYP3A5 (P20815 whole entry): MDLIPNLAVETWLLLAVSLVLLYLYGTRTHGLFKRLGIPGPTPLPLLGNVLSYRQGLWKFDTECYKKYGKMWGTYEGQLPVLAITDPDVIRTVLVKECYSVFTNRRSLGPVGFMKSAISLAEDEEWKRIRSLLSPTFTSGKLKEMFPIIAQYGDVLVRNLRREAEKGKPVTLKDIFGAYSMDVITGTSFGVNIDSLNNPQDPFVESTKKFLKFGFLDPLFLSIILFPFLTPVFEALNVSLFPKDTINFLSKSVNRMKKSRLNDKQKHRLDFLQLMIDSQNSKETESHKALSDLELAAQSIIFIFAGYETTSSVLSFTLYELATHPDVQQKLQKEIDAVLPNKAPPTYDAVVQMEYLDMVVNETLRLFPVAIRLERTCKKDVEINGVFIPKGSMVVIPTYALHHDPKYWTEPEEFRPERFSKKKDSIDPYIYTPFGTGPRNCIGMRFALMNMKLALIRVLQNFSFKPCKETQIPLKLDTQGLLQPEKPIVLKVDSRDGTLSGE

For `O=c1[nH]c(=O)c(Cc2cccc(C(F)(F)F)c2)c([C@H]2CC[C@H](c3ccccc3)CC2)[nH]1` [miricorilant], the “Substrate of OATP1B1” value in data set [1] was “not a substrate”. Moreover, the “inhibition of CYP3A5” value in data set [2] was “No inhibition”.

(Values after PMC12709667 (Journal of Clinical Pharmacology, 2025).)
